# Experimental data published in patent US9181227B2, “Potent and selective inhibitors of hepatitis C virus” (Cocrystal Pharma, Inc., priority 2010, dated 2015).
# pEC50: −log10 of the molar value. Where two headings read alike, the source gives them in different places.
# What was measured:
# Assay type in all cases: cell-based
# [1] = test system: HCV 1b; test: HCV Replicon Assay; details: Hepatitis C virus
# Description: (§1) Huh 7 Clone B cells containing HCV Replicon RNA would be seeded in a 96-well plate at 5000 cells/well, and the compounds tested at 10 μM in triplicate immediately after seeding. Following five days incubation (37° C., 5% CO2), total cellular RNA was isolated by using versaGene RNA purification kit from Gentra. Replicon RNA and an internal control (TaqMan rRNA control reagents, Applied Biosystems) were amplified in a single step multiplex Real Time RT-PCR Assay. The antiviral effectiveness of the compounds was calculated by subtracting the threshold RT-PCR cycle of the test compound from the threshold RT-PCR cycle of the no-drug control (ΔCt HCV). A ΔCt of 3.3 equals a 1-log reduction (equal to 90% less starting material) in Replicon RNA levels. The cytotoxicity of the compounds was also calculated by using the ΔCt rRNA values. 2′-C-Me-C was used as the positive control. To determine EC90 and IC50 values^2, ΔCt: values were first converted into fraction of starting material^3 and then were used to calculate the % inhibition.
# • 1. Stuyver L et al., Ribonucleoside analogue that blocks replication or bovine viral diarrhea and hepatitis C viruses in culture. Antimicrob. Agents Chemother. 2003, 47, 244-254. • 2. Reed I J & Muench H, A simple method or estimating fifty percent endpoints. Am. J. Hyg. 27: 497, 1938. • 3.
# A series of additional compounds was evaluated using the methods described herein.
# [2] = Cytotoxicity in replicon cells by ΔCt rRNA values; details: human, Huh 7 Clone B cells containing HCV replicon RNA
# Description: as §1
# [3] = test system: human PBM cells; test: Cellular toxicity assay, PBM cells; details: cytotoxicity IC50, human PBM cells
# Description: (§2) The toxicity of the compounds was assessed in Vero, human PBM, CEM (human lymphoblastoid), MT-2, and HepG2 cells, as described previously (see Schinazi R. F., Sommadossi J.-P., Saalmann V., Cannon D. L., Xie M.-Y., Hart G. C., Smith G. A. & Hahn E. F. Antimicrob. Agents Chemother. 1990, 34, 1061-67). Cycloheximide was included as positive cytotoxic control, and untreated cells exposed to solvent were included as negative controls. The cytotoxicity IC50 was obtained from the concentration-response curve using the median effective method described previously (see Chou T.-C. & Talalay P. Adv. Enzyme Regul. 1984, 22, 27-55; Belen'kii M. S. & Schinazi R. F. Antiviral Res. 1994, 25, 1-11).
# [4] = test system: CEM (human lymphoblastoid) cells; test: Cellular toxicity assay, CEM cells; details: cytotoxicity IC50, CEM cells
# Description: as §2
# [5] = test system: Vero cells; test: Cellular toxicity assay, Vero cells; details: cytotoxicity IC50, Vero cells
# Description: as §2
# [6] = 120 h, Huh 7 Clone B cells containing HCV Replicon RNA, five days incubation, read-out: Replicon activity (Median Effective concentration EC50 range against HCV 1b)
# [7] = Huh-7, 120 h, read-out: Replicon EC50 (range against HCV 1b)
# [8] = 120 h, Huh 7 Clone B cells containing HCV Replicon RNA, five days incubation, read-out: Replicon EC50 (range against HCV 1b)
SMILES,"pEC50 [1, 6]","pEC50 [1, 7]",CC50 at 5 days [2] [nM],Toxicities PBM [3] [µM],Toxicities CEM [4] [µM],"pEC50 [1, 8]",Toxicities VERO [5] [µM]
COC(=O)N[C@@H](CC(C)C)C(=O)N1CCC[C@H]1c1ncc(-c2ccc(-c3ccccc3)cc2)[nH]1,6.00 to 7.00,,,,,,
COC(=O)N[C@H](C(=O)N1CCC[C@H]1c1ncc(-c2ccc(N=[N+]=[N-])cc2)[nH]1)C(C)C,7.00 to 9.00,,,,,,
COC(=O)N[C@H](C(=O)N1CCC[C@H]1c1ncc(-c2ccc(-n3cc(-c4cncn4C)nn3)cc2)[nH]1)C(C)C,6.00 to 7.00,,,,,,
C#Cc1ccc(-c2cn(-c3ccc(-c4cnc(C5CCCN5C(=O)[C@@H](NC(=O)OC)C(C)C)[nH]4)cc3)nn2)cc1 (stereo partly shown),7.00 to 9.00,,,,,,
COC(=O)N[C@H](C(=O)N1C[C@@H](n2cc(C(=O)OC)nn2)C[C@H]1c1ncc(-c2ccc(-c3ccc(-c4cnc([C@@H]5C[C@H](n6cc(C(=O)OC)nn6)CN5C(=O)[C@@H](NC(=O)OC)C(C)C)[nH]4)cc3)cc2)[nH]1)C(C)C,,6.00 to 7.00,> 1000,53,13.5,,
COC(=O)N[C@H](C(=O)N1C[C@@H](n2cc(COC(C)=O)nn2)C[C@H]1c1ncc(-c2ccc(-c3ccc(-c4cnc([C@@H]5C[C@H](n6cc(COC(C)=O)nn6)CN5C(=O)[C@@H](NC(=O)OC)C(C)C)[nH]4)cc3)cc2)[nH]1)C(C)C,,6.00 to 7.00,> 1000,53,13.5,,
COC(=O)N[C@H](C(=O)N1C[C@@H](SC)C[C@H]1c1ncc(-c2ccc(-c3ccc(-c4cnc([C@@H]5C[C@H](SC)CN5C(=O)[C@@H](NC(=O)OC)C(C)C)[nH]4)cc3)cc2)[nH]1)C(C)C,,,> 1000,15.6,13.3,> 9.00,10.9
COC(=O)N[C@H](C(=O)N1C[C@H](n2cc(-c3ccccc3)nn2)C[C@H]1c1ncc(-c2ccc(-c3ccc(-c4cnc([C@@H]5C[C@@H](n6cc(-c7ccccc7)nn6)CN5C(=O)[C@@H](NC(=O)OC)C(C)C)[nH]4)cc3)cc2)[nH]1)C(C)C,,,> 1000,> 100,> 100,7.00 to 9.00,> 100
COC(=O)N[C@H](C(=O)N1C[C@H](n2ccnn2)C[C@H]1c1ncc(-c2ccc(-c3ccc(-c4cnc([C@@H]5C[C@@H](n6cc([Si](C)(C)C)nn6)CN5C(=O)[C@@H](NC(=O)OC)C(C)C)[nH]4)cc3)cc2)[nH]1)C(C)C,,,> 1000,3,16.2,7.00 to 9.00,> 100
COC(=O)N[C@H](C(=O)N1C[C@H](n2cc([Si](C)(C)C)nn2)C[C@H]1c1ncc(-c2ccc(-c3ccc(-c4cnc([C@@H]5C[C@@H](n6cc([Si](C)(C)C)nn6)CN5C(=O)[C@@H](NC(=O)OC)C(C)C)[nH]4)cc3)cc2)[nH]1)C(C)C,,,> 1000,> 100,25.2,7.00 to 9.00,> 100
"COC(=O)N[C@H](C(=O)N1CCC[C@H]1c1ncc(-c2ccc(-c3ccccc3)cc2)[nH]1)C(C)C [Methyl ((S)-1-((S)-2-(5-([1,1′-biphenyl]-4-yl)-1H-imidazol-2-yl)pyrrolidin-1-yl)-3-methyl-1-oxobutan-2-yl)carbamate]",6.00 to 7.00,,,,,,
"COC(=O)N[C@H](C(=O)N1CCC[C@H]1c1ncc(-c2ccc(-n3cc(-c4ccccc4)nn3)cc2)[nH]1)C(C)C [Methyl ((S)-3-methyl-1-oxo-1-((S)-2-(5-(4-(4-phenyl-1H-1,2,3-triazol-1-yl)phenyl)-1H-imidazol-2-yl)pyrrolidin-1-yl)butan-2-yl)carbamate]",6.00 to 7.00,,,,,,
